Tests used:
[1] = leakage of encapsulated active product into the continuous phase (optical absorbance versus time); format: physicochemical
Description: FIG. 4 is a graph illustrating the absorbance in the continuous phase in a dispersion according to the invention, wherein an active absorbent product was encapsulated in the dispersed phase;
FIG. 5 is a view similar to FIG. 4 for a dispersion according to the invention containing another absorbent active product; and
FIGS. 4 and 5 respectively illustrate the ratio of optical absorbance in the continuous phase 14 versus time for respectively the dispersion of the first example containing dextran, and for the dispersion of the second example containing bovine serum albumin.

[2] = partition coefficient of the active product between membrane phase and internal phase (octanol/water) and ratio R2 over membrane viscosity; format: physicochemical; details: concentration in octanol over concentration in water
Description: The ratio of the partition coefficient Cp of the active product 20 between the membrane 18 and the internal drop 16 is obtained by determining the partition coefficient of this active product 20 between a homologous phase to the intermediate phase forming the membrane 18 and a homologous phase to the internal phase forming the internal drop 16. The ratio Cp is calculated with the following equation: Cp=K=[active in the membrane phase]/[active in the internal phase].
In particular, when the internal drop 16 is aqueous, and when the membrane 18 is oily, the ratio Cp may be estimated by using log P=log K with: Cp=K=[active in octanol]/[active in water].
Further, the value of log P (=log (K)) may be simply evaluated by means of easily accessible molecular modeling software packages on the Internet such as for example on www.molispiration.com, www.vcclab.org/lab/alogps/start.html.
Experimental determination is possible with the following method: an accurate amount of the active is weighed and solubilized in one of the two water or octanol phases. Two equivalent volumes of both phases are then put into contact with stirring. The concentrations of the active product in each of both phases are then measured after thermodynamic equilibrium of the system. This concentration measurement may for example be carried out by directly measuring the absorbance, if the molecule absorbs light, or by liquid chromatography. This measurement is for example carried out at 22° C.
The coefficient K is then determined experimentally by the ratio of the concentration of the active in octanol over that in water.

[3] = absorbance in continuous phase, after more than one week at 50° C., R1 0.38

Molecule	leakage of active product from the dispersed bodies ([1]; R2 equal to 3.05, time and temperature not stated)	partition coefficient (K, Cp) of the active product [2]	leakage of active product from the dispersed bodies [1, 3]
CCN(CC)c1ccc2c(-c3ccccc3C(=O)O)c3ccc(=[N+](CC)CC)cc-3oc2c1.[Cl-] [Rhodamine B]	leakage is observed	70.8	–
bovine serum albumin	–	less than 10^−3	no leakage
dextran	–	less than 10^−2	no leakage

From patent US10143650B2, “Dispersion intended for encapsulating an active product and associated use” (CAPSUM, priority 2012, dated 2018)
